# Assay results reported in the supplement of paper PMC10307832.
# Experiments:
# Assay in all cases: relative viability (nuclei count vs DMSO), 5 days (fraction); higher = more cells survive
# ABC-1 = tested on: ABC-1
# In short: (§1)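 A single step with final 0.05% Triton X-100, 1% formaldehyde and 1 ug/ml Hoechst fixed the cells and stained nuclei 5 days after treatment. Lung cancer cell lines in 1536-well plates had been treated by pin tool the day after seeding with one drug alone or a fixed anchor-drug dose plus five library-drug doses (not always all listed) in √10 steps, and nuclei were counted on 4× images. Relative viability is the ratio of nuclei in treated wells to nuclei in vehicle wells, taken as the median of duplicate plates.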
# COR-L23 = tested on: COR-L23
# In short: as §1
# ChaGo-K-1 = tested on: ChaGo-K-1
# In short: as §1
# EMC-BAC-2 = tested on: EMC-BAC-2
# In short: as §1
# HARA = tested on: HARA
# In short: as §1
# HCC-15 = tested on: HCC-15
# In short: as §1
# HCC-366 = tested on: HCC-366
# In short: as §1
# HCC-78 = tested on: HCC-78
# In short: as §1
# HOP-62 = tested on: HOP-62
# In short: as §1
# LC-2-ad = tested on: LC-2-ad
# In short: as §1
# NCI-H1395 = tested on: NCI-H1395
# In short: as §1
# NCI-H1793 = details: first compound 0.0002 µM
# In short: as §1
smiles,measurement,setting,value
CC(=O)O[C@@]12CO[C@@H]1C[C@H](O)[C@@]1(C)C(=O)[C@H](O)C3=C(C)[C@@H](OC(=O)[C@H](O)[C@@H](NC(=O)OC(C)(C)C)c4ccccc4)C[C@@](O)([C@@H](OC(=O)c4ccccc4)[C@H]21)C3(C)C [Docetaxel] + N=C(N)NC(=N)NCCc1ccccc1 [Phenformin] (partner 250 µM),relative viability,ABC-1; first compound 0.0002 µM,0.27
same,relative viability,ABC-1; first compound 0.000632 µM,0.226
same,relative viability,ABC-1; first compound 0.002 µM,0.232
same,relative viability,ABC-1; first compound 0.006325 µM,0.223
same,relative viability,ABC-1; first compound 0.02 µM,0.212
same,relative viability,COR-L23; first compound 0.0002 µM,0.399
same,relative viability,COR-L23; first compound 0.000632 µM,0.32
same,relative viability,COR-L23; first compound 0.002 µM,0.167
same,relative viability,COR-L23; first compound 0.006325 µM,0.106
same,relative viability,COR-L23; first compound 0.02 µM,0.098
same,relative viability,ChaGo-K-1; first compound 0.0002 µM,0.431
same,relative viability,ChaGo-K-1; first compound 0.000632 µM,0.408
same,relative viability,ChaGo-K-1; first compound 0.002 µM,0.283
same,relative viability,ChaGo-K-1; first compound 0.006325 µM,0.192
same,relative viability,ChaGo-K-1; first compound 0.02 µM,0.149
same,relative viability,EMC-BAC-2; first compound 0.0002 µM,0.509
same,relative viability,EMC-BAC-2; first compound 0.000632 µM,0.412
same,relative viability,EMC-BAC-2; first compound 0.002 µM,0.306
same,relative viability,EMC-BAC-2; first compound 0.006325 µM,0.278
same,relative viability,EMC-BAC-2; first compound 0.02 µM,0.177
same,relative viability,HARA; first compound 0.0002 µM,0.387
same,relative viability,HARA; first compound 0.000632 µM,0.19
same,relative viability,HARA; first compound 0.002 µM,0.0801
same,relative viability,HARA; first compound 0.006325 µM,0.0508
same,relative viability,HARA; first compound 0.02 µM,0.0419
same,relative viability,HCC-15; first compound 0.0002 µM,0.402
same,relative viability,HCC-15; first compound 0.000632 µM,0.315
same,relative viability,HCC-15; first compound 0.002 µM,0.181
same,relative viability,HCC-15; first compound 0.006325 µM,0.203
same,relative viability,HCC-15; first compound 0.02 µM,0.113
same,relative viability,HCC-366; first compound 0.0002 µM,0.599
same,relative viability,HCC-366; first compound 0.000632 µM,0.253
same,relative viability,HCC-366; first compound 0.002 µM,0.147
same,relative viability,HCC-366; first compound 0.006325 µM,0.0428
same,relative viability,HCC-366; first compound 0.02 µM,0.0275
same,relative viability,HCC-78; first compound 0.0002 µM,0.582
same,relative viability,HCC-78; first compound 0.000632 µM,0.615
same,relative viability,HCC-78; first compound 0.002 µM,0.409
same,relative viability,HCC-78; first compound 0.006325 µM,0.371
same,relative viability,HCC-78; first compound 0.02 µM,0.354
same,relative viability,HOP-62; first compound 0.0002 µM,0.671
same,relative viability,HOP-62; first compound 0.000632 µM,0.501
same,relative viability,HOP-62; first compound 0.002 µM,0.322
same,relative viability,LC-2-ad; first compound 0.0002 µM,0.497
same,relative viability,LC-2-ad; first compound 0.000632 µM,0.494
same,relative viability,LC-2-ad; first compound 0.002 µM,0.327
same,relative viability,LC-2-ad; first compound 0.006325 µM,0.243
same,relative viability,NCI-H1395; first compound 0.0002 µM,0.434
same,relative viability,NCI-H1395; first compound 0.000632 µM,0.45
same,relative viability,NCI-H1395; first compound 0.002 µM,0.442
same,relative viability,NCI-H1395; first compound 0.006325 µM,0.283
same,relative viability,NCI-H1395; first compound 0.02 µM,0.334
same,relative viability,NCI-H1793,0.302
